# In US20060069132A1, “Azolecarboxamide herbicides” (priority 2004, published 2006):
# How the values were obtained:
# southern sandbur = assay: Test E pre-/postemergence herbicide test; format: in vivo, Cenchrus echinatus; settings: Preemergence
# Outline: (§1)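 Postemergence treatment targeted plants at the 1- to 4-leaf stage (2–18 cm), alongside preemergence treatment of planted seed; both used a non-phytotoxic solvent mixture with surfactant. Visual ratings, 0 = no effect to 100 = complete control, were taken 12 to 14 days later.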
# downy bromegrass = assay: Test C postemergence herbicide test; format: in vivo, Bromus tectorum
# Outline: (§2)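 Plants were grown to the 1- to 4-leaf stage (2–18 cm) and then treated postemergence, or grown to the 2-leaf stage for the flooded paddy test. They were held in a greenhouse for 12 to 14 days and then scored by eye against controls, where 0 is no effect and 100 is complete control.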
# green foxtail [1] = assay: Test E pre-/postemergence herbicide test; format: in vivo, Setaria viridis; settings: Preemergence
# Outline: as §1
# Canada horseweed = assay: Test E pre-/postemergence herbicide test; format: in vivo, Erigeron Canadensis; settings: Preemergence
# Outline: as §1
# mustard = assay: Test E pre-/postemergence herbicide test; format: in vivo, Brassica nigra; settings: Preemergence
# Outline: as §1
# Italian ryegrass [2] = assay: Test E pre-/postemergence herbicide test; format: in vivo, Lolium multiflorum; settings: Preemergence
# Outline: as §1
# barnyardgrass = assay: Test E pre-/postemergence herbicide test; format: in vivo, Echinochloa crus-galli; settings: Preemergence
# Outline: as §1
# bermudagrass = assay: Test E pre-/postemergence herbicide test; format: in vivo, Cynodon dactylon; settings: Preemergence
# Outline: as §1
# guineagrass = assay: Test E pre-/postemergence herbicide test; format: in vivo, Panicum maximum; settings: Preemergence
# Outline: as §1
# green foxtail [3] = assay: Test C postemergence herbicide test; format: in vivo, Setaria viridis
# Outline: as §2
# Surinam grass = assay: Test E pre-/postemergence herbicide test; format: in vivo, Urochloa decumbens; settings: Preemergence
# Outline: as §1
# broadleaf signalgrass = assay: Test E pre-/postemergence herbicide test; format: in vivo, Brachiaria platyphylla; settings: Preemergence
# Outline: as §1
# Italian ryegrass [4] = assay: Test C postemergence herbicide test; format: in vivo, Lolium multiflorum
# Outline: as §2
# [5] = 250 g ai/ha, scale 0 (no effect) to 100 (complete control)
# [6] = 500 g ai/ha, scale 0 (no effect) to 100 (complete control)
# [7] = Postemergence, 250 g ai/ha, scale 0 to 100, 0 no effect, 100 complete control
# [8] = postemergence, 125 g ai/ha, scale 0 to 100
# [9] = postemergence, 62 g ai/ha, scale 0 to 100
# [10] = Postemergence, 500 g ai/ha, scale 0 to 100, 0 no effect, 100 complete control
smiles,measurement,setting,value
CCc1nn(C(C)(C)C)nc1C(=O)Nc1cccc(C(=O)N(C)CC)c1 [Compound 384],"Plant response rating, Sandbur","southern sandbur; 62 g ai/ha, scale 0 to 100",10
same,"Plant response rating, Sandbur","southern sandbur; 125 g ai/ha, scale 0 to 100",60
same,"Plant response rating, Sandbur",southern sandbur; [5],70
same,"Plant response rating, Sandbur",southern sandbur; [6],100
same,"Plant response rating, Bromegrass, Downy",downy bromegrass; [7],55
same,"Plant response rating, Bromegrass, Downy",downy bromegrass; [8],45
same,"Plant response rating, Bromegrass, Downy","downy bromegrass; postemergence, 31 g ai/ha, scale 0 to 100",30
same,"Plant response rating, Bromegrass, Downy",downy bromegrass; [9],40
same,"Plant response rating, Foxtail, Green","green foxtail [1]; 62 g ai/ha, scale 0 to 100",10
same,"Plant response rating, Foxtail, Green",green foxtail [1]; [5],40
same,"Plant response rating, Foxtail, Green",green foxtail [1]; [6],95
same,"Plant response rating, Horseweed","Canada horseweed; 125 g ai/ha, scale 0 to 100",75
same,"Plant response rating, Horseweed",Canada horseweed; [5],95
same,"Plant response rating, Horseweed",Canada horseweed; [6],100
same,"Plant response rating, Black Mustard","mustard; 62 g ai/ha, scale 0 to 100",60
same,"Plant response rating, Black Mustard","mustard; 125 g ai/ha, scale 0 to 100",80
same,"Plant response rating, Black Mustard",mustard; [5],85
same,"Plant response rating, Black Mustard",mustard; [6],100
same,"Plant response rating, Ryegrass, Italian","Italian ryegrass [2]; 62 g ai/ha, scale 0 to 100",20
same,"Plant response rating, Ryegrass, Italian","Italian ryegrass [2]; 125 g ai/ha, scale 0 to 100",75
same,"Plant response rating, Ryegrass, Italian",Italian ryegrass [2]; [5],80
same,"Plant response rating, Ryegrass, Italian",Italian ryegrass [2]; [6],95
same,"Plant response rating, Barnyardgrass","barnyardgrass; 62 g ai/ha, scale 0 to 100",40
same,"Plant response rating, Barnyardgrass","barnyardgrass; 125 g ai/ha, scale 0 to 100",80
same,"Plant response rating, Barnyardgrass",barnyardgrass; [5],85
same,"Plant response rating, Barnyardgrass",barnyardgrass; [6],100
same,"Plant response rating, Bermudagrass","bermudagrass; 62 g ai/ha, scale 0 to 100",80
same,"Plant response rating, Bermudagrass","bermudagrass; 125 g ai/ha, scale 0 to 100",95
same,"Plant response rating, Bermudagrass",bermudagrass; [5],95
same,"Plant response rating, Bermudagrass",bermudagrass; [6],95
same,"Plant response rating, Guineagrass","guineagrass; 62 g ai/ha, scale 0 to 100",95
same,"Plant response rating, Guineagrass","guineagrass; 125 g ai/ha, scale 0 to 100",95
same,"Plant response rating, Guineagrass",guineagrass; [5],95
same,"Plant response rating, Guineagrass",guineagrass; [6],100
same,"Plant response rating, Foxtail, Green",green foxtail [3]; [7],65
same,"Plant response rating, Foxtail, Green",green foxtail [3]; [8],60
same,"Plant response rating, Foxtail, Green",green foxtail [3]; [9],60
same,"Plant response rating, Surinam Grass","Surinam grass; 125 g ai/ha, scale 0 to 100",60
same,"Plant response rating, Surinam Grass",Surinam grass; [6],95
same,"Plant response rating, Signalgrass","broadleaf signalgrass; 62 g ai/ha, scale 0 to 100",10
same,"Plant response rating, Signalgrass","broadleaf signalgrass; 125 g ai/ha, scale 0 to 100",70
same,"Plant response rating, Signalgrass",broadleaf signalgrass; [5],80
same,"Plant response rating, Signalgrass",broadleaf signalgrass; [6],80
same,"Plant response rating, Ryegrass, Italian",Italian ryegrass [4]; [8],55
same,"Plant response rating, Ryegrass, Italian",Italian ryegrass [4]; [9],45
CCNC(=O)c1cccc(NC(=O)c2nn(C(C)(C)C)nc2C)c1 [Compound 392],"Plant response rating, Sandbur","southern sandbur; 62 g ai/ha, scale 0 to 100",0
same,"Plant response rating, Sandbur","southern sandbur; 125 g ai/ha, scale 0 to 100",10
same,"Plant response rating, Sandbur",southern sandbur; [5],20
same,"Plant response rating, Sandbur",southern sandbur; [6],70
same,"Plant response rating, Bromegrass, Downy",downy bromegrass; [7],55
same,"Plant response rating, Bromegrass, Downy",downy bromegrass; [10],60
same,"Plant response rating, Bromegrass, Downy",downy bromegrass; [8],55
same,"Plant response rating, Bromegrass, Downy",downy bromegrass; [9],35
same,"Plant response rating, Foxtail, Green","green foxtail [1]; 62 g ai/ha, scale 0 to 100",10
same,"Plant response rating, Foxtail, Green",green foxtail [1]; [5],70
same,"Plant response rating, Foxtail, Green",green foxtail [1]; [6],95
same,"Plant response rating, Horseweed","Canada horseweed; 62 g ai/ha, scale 0 to 100",60
same,"Plant response rating, Horseweed","Canada horseweed; 125 g ai/ha, scale 0 to 100",60
same,"Plant response rating, Horseweed",Canada horseweed; [5],75
same,"Plant response rating, Horseweed",Canada horseweed; [6],85
same,"Plant response rating, Black Mustard","mustard; 62 g ai/ha, scale 0 to 100",60
same,"Plant response rating, Black Mustard",mustard; [5],85
same,"Plant response rating, Black Mustard",mustard; [6],100
same,"Plant response rating, Ryegrass, Italian","Italian ryegrass [2]; 62 g ai/ha, scale 0 to 100",10
same,"Plant response rating, Ryegrass, Italian","Italian ryegrass [2]; 125 g ai/ha, scale 0 to 100",60
same,"Plant response rating, Ryegrass, Italian",Italian ryegrass [2]; [5],70
same,"Plant response rating, Ryegrass, Italian",Italian ryegrass [2]; [6],80
same,"Plant response rating, Barnyardgrass","barnyardgrass; 62 g ai/ha, scale 0 to 100",75
same,"Plant response rating, Barnyardgrass","barnyardgrass; 125 g ai/ha, scale 0 to 100",75
same,"Plant response rating, Barnyardgrass",barnyardgrass; [5],90
same,"Plant response rating, Barnyardgrass",barnyardgrass; [6],100
same,"Plant response rating, Bermudagrass","bermudagrass; 62 g ai/ha, scale 0 to 100",60
same,"Plant response rating, Bermudagrass","bermudagrass; 125 g ai/ha, scale 0 to 100",60
same,"Plant response rating, Bermudagrass",bermudagrass; [5],85
same,"Plant response rating, Bermudagrass",bermudagrass; [6],90
same,"Plant response rating, Guineagrass","guineagrass; 62 g ai/ha, scale 0 to 100",75
same,"Plant response rating, Guineagrass","guineagrass; 125 g ai/ha, scale 0 to 100",80
same,"Plant response rating, Guineagrass",guineagrass; [5],95
same,"Plant response rating, Guineagrass",guineagrass; [6],100
same,"Plant response rating, Foxtail, Green",green foxtail [3]; [7],65
same,"Plant response rating, Foxtail, Green",green foxtail [3]; [10],70
same,"Plant response rating, Foxtail, Green",green foxtail [3]; [8],60
same,"Plant response rating, Foxtail, Green",green foxtail [3]; [9],60
same,"Plant response rating, Surinam Grass","Surinam grass; 125 g ai/ha, scale 0 to 100",60
same,"Plant response rating, Surinam Grass",Surinam grass; [6],95
same,"Plant response rating, Signalgrass","broadleaf signalgrass; 62 g ai/ha, scale 0 to 100",10
same,"Plant response rating, Signalgrass","broadleaf signalgrass; 125 g ai/ha, scale 0 to 100",30
same,"Plant response rating, Signalgrass",broadleaf signalgrass; [5],70
same,"Plant response rating, Signalgrass",broadleaf signalgrass; [6],85
same,"Plant response rating, Ryegrass, Italian",Italian ryegrass [4]; [10],65
same,"Plant response rating, Ryegrass, Italian",Italian ryegrass [4]; [8],50
same,"Plant response rating, Ryegrass, Italian",Italian ryegrass [4]; [9],35
C=CCNC(=O)c1cccc(NC(=O)c2nn(C(C)(C)C)nc2CC)c1 [Compound 414],"Plant response rating, Bromegrass, Downy",downy bromegrass; [7],55
same,"Plant response rating, Bromegrass, Downy",downy bromegrass; [10],60
same,"Plant response rating, Bromegrass, Downy",downy bromegrass; [8],45
same,"Plant response rating, Bromegrass, Downy",downy bromegrass; [9],40
same,"Plant response rating, Foxtail, Green",green foxtail [3]; [7],65
same,"Plant response rating, Foxtail, Green",green foxtail [3]; [10],65
same,"Plant response rating, Foxtail, Green",green foxtail [3]; [8],60
same,"Plant response rating, Foxtail, Green",green foxtail [3]; [9],60
same,"Plant response rating, Ryegrass, Italian",Italian ryegrass [4]; [10],60
same,"Plant response rating, Ryegrass, Italian",Italian ryegrass [4]; [8],55
same,"Plant response rating, Ryegrass, Italian",Italian ryegrass [4]; [9],50
